Measured values reported in patent US5672470A, “Microbial process for detection of toxic substances” (priority 1994, dated 1997).
Converted amounts (≈) assume the structure as drawn. “And” between values parts separate entries of the source, which are not always exact repeats. Equal values may be shown once. Read-outs that look alike come from different tables or passages of the source.

What was measured:
[1] = system: bacteria phosphotransferase system (PTS) of E. coli mutant 1219bgl+; assay: microbe, parasite or virus in culture; type: cell-based; conditions: for IC50: pH 6.5, read-out: EC50
Text: Since the phosphotransferase system for the bacterial cell is an essential transport system for the reception of extracellular carbohydrates, a possible inhibition or adverse effect of the participating enzymes should be noticed to cause a reduction in the carbohydrate transport, that is the PTS constitutes a potential possibility for the detection of toxic substances in microorganisms. […] Said analog is of such a nature that it, in phosphorylated form after the cell transport, can be hydrolyzed by an enzyme in the bacterial cell under the release of a substance susceptible to analysis. If, for instance, 2-nitrophenyl-β-D-glucoside is used as substrate analog, this will be channeled by the PTS under phosphorylation into a bacterial cell, where the ONP-Glc-6-P is broken down hydrolytically by the inducible 6-phospho-β-glucosidase B to Glc-6-P and 2-nitrophenyl. The released 2-nitrophenyl can then, by means of photometry, be quantitatively measured as phenolate-anion after a defined time span. Additionally, with E. coli mutant 1219bgl+ a bacterium is present that is characterized by increased β-glycoside activity, yet is not transformed through genetic engineering nor is pathogenic, which is an important prerequisite for harmless work with bacteria.
The test occurs with a total reaction volume of 500 μl in Eppendorf cups, the O.D.578 of the bacteria suspension amounting to 3.0.
The E. coli cultures of the mutant 1219 bgl+, preserved at -20° C., are first thawed to be reactivated during 10 min. at room temperature. They are then suspended in 250 μl of 50 mM buffer and together with the appropriate test solution and distilled water brought to a volume of 480 μl . This suspension is then pre-incubated over a time span of 10-15 minutes at 37° C. After that, the reaction is started by adding 20 μl of ONP-glucose (50 mM) (equivalent to a final concentration in the reaction batch of 2 mM). The reaction mixture is incubated over a time span of 5 minutes at 37° C. After the end of this reaction time the reaction is terminated by adding 1 ml of Na2 CO3 (0.5M). After a 2 minute centrifugation at 17,000×g the substrate transformations of the tested bacteria suspensions are photometrically determined at 405 nm.
The evaluation of the PTS test with ONP-glycosides is done by means of the toxicological characteristic quantity of the "efficient concentration", (the EC value). It is hereinunder understood with such a concentration of added toxic substance that a measurable parameter of an organism will be inhibited to a certain extent within a freely defined time span. The percentage of adverse effect of the parameter to be measured is indicated by the attached index.
The conversion of the registered percentage inhibitory values into EC values is carried out with the help of the gamma method (Johnson, F. H., Eyring, H. and Stover, B. J., 1974; The theory of rate processes in biology and medicine, John Wiley & Sons, New York: 1-385). With the aid of the O.D.405, registered in the PTS inhibition test, the quotient is formed from the ONP-glycoside cleavage output and the remaining ONP-glycoside cleavage. [formula] O.D.405 : Substrate transformation without toxic substance solution. D O.D.405 : Output of the substrate transformation after incubation with the toxic substance solution.
The gamma values hereby obtained are used against the employed concentration of toxic substance, in a double logarithmic representation. […]

Vibrio fischen = conditions: cited from earlier work
[2] = system: E. coli mutant 1219bgl+ PTS; assay: ONP-glycoside cleavage in dependency on substrate concentration (Lineweaver-Burk); type: cell-based; conditions: Lineweaver-Burk process
Procedure: Looking more closely into the ONP-glycoside cleavage in dependency on substrate concentration, we find the presence of saturation kinetics without substrate inhibition (FIG. 4). […] Since, when increasing the substrate concentration, there was no further velocity increase to be registered, the dosage of the substrate to be used, according to the invention, takes place in accord with a cost and efficiency weighting at 2 mM. When performing the PTS inhibition test, in accordance with the invention, it also turned out that the sensitivity of the test is clearly dependent on the kind of buffer used. It was particularly conspicuous that phosphate buffer has a clearly stimulating effect on the ONP-glycoside hydrolysis, whereas, on the other hand, when performing the inhibition test with heavy metals as toxic substances, the strongest inhibitory effects were to be registered when using the HEPES buffer. It should however be taken into account that a phosphate buffer in the presence of heavy metal salts is less suitable due to solubility problems that then might occur. Therefore when testing heavy metals, the HEPES buffer should preferably be chosen.

[3] = heavy metal ions as chlorides, HEPES buffer pH 6.5, 37° C., 5 min reaction, 5 min
[4] = heavy metal ions as chlorides, HEPES buffer pH 6.5, 37° C., 5 min reaction, read-out: EC50
[5] = Escherichia coli, pH 6.5, read-out: EC10, organic solvents, 50 mM phosphate buffer pH 6.5
[6] = organic solvents, 50 mM phosphate buffer pH 6.5
[7] = reaction time 10 min, Beckmann, 1980

In the case of `[Ni+2]` [Ni^2+], the maximal inhibition ([1]; HEPES buffer pH 6.5) is reported as “about 70%”, the EC50 [1, 3] is reported as 4.5 ppm and the EC50 [1, 4] is reported as 76.6 µM.

In the case of `[Cr+3]` [Cr^3+], the EC50 [1, 3] is reported as 16 ppm.

In the case of `CCO` [Ethanol, ethanol], the IC50 ([1]; Escherichia coli, 5 min) is reported as 33000 mg/L (≈ 716 mM), the IC10 [1, 5] is reported as 10500 µg/mL and 288 µM and the EC10 [1, 6] is reported as “approx. 10,500 ppm”. The “Bioluminescent Inhibition Test EC50 (ppm)” value (Vibrio fischen; vibrio fischeri luminescence) was 31,000.

In the case of `ClC(Cl)Cl` [Chloroform, chloroform], the IC50 ([1]; Escherichia coli, 5 min) is reported as 1900 mg/L (≈ 15.9 mM), the EC50 ([1]; Escherichia coli, pH 6.5) is reported as 15900 µM and the IC10 [1, 5] is reported as 720 µg/mL and 6 µM. For the same compound, the “Bioluminescent Inhibition Test EC50 (ppm)” value (Vibrio fischen; vibrio fischeri luminescence) was 1,168.

In the case of `Cc1ccccc1` [Toluene, toluene], the IC50 ([1]; Escherichia coli, 5 min) is reported as 35 mg/L (≈ 0.38 mM) and the EC50 ([1]; Escherichia coli, pH 6.5) is reported as 380 µM.

For `[Cd+2]` [Cd^2+], the EC50 [1, 3] is given as 19 ppm, the EC50 [1, 4] is given as 169 µM and the “Bioluminescent Inhibition Test EC50 (ppm)” value (Vibrio fischen; [7]) is given as 131 ppm.

For `ClCCCl` [Dichloroethane, dichloroethane], the “inhibition of ONP-glucose transformation” value ([1]; at approx. 3,500 ppm (approximative 35 μM as printed), phosphate buffer pH 6.5, no extrapolation to gamma values possible) was “about 30%”.

In the case of `O=[N+]([O-])c1ccccc1O[C@@H]1O[C@H](CO)[C@@H](O)[C@H](O)[C@H]1O` [ONP-glycoside, 2-nitrophenyl-β-D-glucoside], the Km [2] is reported as 2000 µM and the maximal reaction velocity [2] is reported as 42 nmol/min/mL.

For `CCCCCCCCCCCCOS(=O)(=O)O` [SDS], the IC50 ([1]; Escherichia coli, 5 min) was 13 mg/L (≈ 0.0488 mM), the EC50 ([1]; Escherichia coli, pH 6.5) was 45.1 µM and the IC10 ([1]; Escherichia coli, pH 6.5, read-out: EC10, detergents, 50 mM HEPES buffer pH 6.5) was 5.5 µg/mL and ~19 µM.

Work on Triton X-100 yielded an EC50 ([1]; detergents, 50 mM HEPES buffer pH 6.5, 5 min) of 180 ppm.

With `C1COCCO1` [Dioxan, dioxan] the IC50 ([1]; Escherichia coli, 5 min) was 30000 mg/L (≈ 340 mM), the IC10 [1, 5] was 10000 µg/mL and 114 µM and the EC10 [1, 6] was “approx. 10,000 ppm”.

With `Oc1ccccc1` [Phenol, phenol] the IC50 ([1]; Escherichia coli, 5 min) was 1400 mg/L (≈ 14.9 mM), the EC50 ([1]; Escherichia coli, pH 6.5) was 14900 µM and the IC10 [1, 5] was 350 µg/mL and 3.7 µM. The “Bioluminescent Inhibition Test EC50 (ppm)” value (Vibrio fischen; vibrio fischeri luminescence) was 25.

With `[Hg+2]` [Hg^2+] the maximal inhibition ([1]; HEPES buffer pH 6.5) was “about 70%”, the EC50 [1, 3] was 2.1 ppm and the EC50 [1, 4] was 10.3 µM. For the same compound, the “Bioluminescent Inhibition Test EC50 (ppm)” value (Vibrio fischen; reaction time 5 min, Bulich et al., 1981) was 0.065 ppm.

`[Pb+2]` [Pb^2+] gave an EC50 [1, 3] of 67 ppm, an EC10 ([1]; heavy metal ions as chlorides, HEPES buffer pH 6.5, 37° C., 5 min reaction, listed as Pb^+) of 120 µM and an EC50 [1, 4] of 322 µM. The “Bioluminescent Inhibition Test EC50 (ppm)” value (Vibrio fischen; reaction time 30 min, Beckmann, 1981) was 0.4 ppm.

In the case of `[Cu+2]` [Cu^2+], the EC50 [1, 3] is listed as 11 ppm, the EC50 [1, 4] is listed as 173 µM and the “Bioluminescent Inhibition Test EC50 (ppm)” value (Vibrio fischen; [7]) is listed as 16 ppm.

In the case of `[Zn+2]` [Zn^2+], the EC50 [1, 3] is listed as 8 ppm, the EC50 [1, 4] is listed as 122 µM and the “Bioluminescent Inhibition Test EC50 (ppm)” value (Vibrio fischen; [7]) is listed as 25.4 ppm.
